According to patent US4680396A, “Bis(aminoalkyl)piperazine derivatives and their use as metal ion control agents” (The Dow Chemical Company, priority 1984, dated 1987):
“Also recorded” adds a separate entry of the source. Structures can show the parent of a compound that is named as a salt.

Key:
[1] = Calcium Scale Inhibitor Test (NACE test method TM-03-74), calcium carbonate scale; details: for Percent Inhibition at 24 Hrs. / Percent Inhibition at 48 Hrs. / Percent Inhibition at 72 Hrs.: 10 ppm based on active acid content; for threshold activity (in words): threshold agent, less than stoichiometric amounts
Experimental: To show the utility of the above compounds as scale inhibitors, the following test was run.
Calcium Scale Inhibitor Test
The compounds were evaluated as scale inhibitors for calcium carbonate scale according to National Association of Corrosion Engineers (NACE) test method TM-03-74. Note the dramatic improvement of the phosphonic acids prepared from the bis(aminoethyl)piperazine and bis(aminopropyl)piperazine compounds of this invention when compared to aminoethylpiperazinetrimethylenephosphonic acid taught in the U.S. patent literature as a good scale inhibition compound.
*ppm based on active acid content

[2] = Titration with standard copper solution in the presence of chrome azurol-S indicator (sequestering/chelating); details: titrated with standard copper solution
From the text: The compounds of this invention can also function as sequestering/chelating agents. For example, compounds were titrated with standard copper solution in the presence of chrome azurol-S indicator. The compound of Example 9 complexed about one mole of copper per mole of ligand. […] The compound of Example 3 was titrated and found to complex approximately three moles of copper per mole of ligand. The compound can function as either a threshold compound or a chelating agent.

| SMILES | Percent Inhibition at 24 Hrs. [1] [%] | Percent Inhibition at 48 Hrs. [1] [%] | Percent Inhibition at 72 Hrs. [1] [%] | threshold activity (in words) [1] | copper complexed per mole of ligand [2] |
| --- | --- | --- | --- | --- | --- |
| O=P(O)(O)CN1CCN(CCN(CP(=O)(O)O)CP(=O)(O)O)CC1 [Example A, aminoethylpiperazine trimethylenephosphonic acid, reference compound] | 77 | 65 | 60 | not have very good threshold activity | – |
| O=P(O)(O)CN(CCN1CCN(CCN(CP(=O)(O)O)CP(=O)(O)O)CC1)CC(O)CS(=O)(=O)O (stereo not shown) [Example 6] | 85 | 73 | 75 | – | – |
| O=C(O)CN(CCN1CCN(CCN(CC(=O)O)CC(=O)O)CC1)CC(=O)O [Example 9, tetrasodium salt of bis(aminoethyl)piperazine-tetraacetic acid] | 55 | 51 | 50 | not a good threshold compound; also recorded: ineffective as a threshold compound | about one |
| O=P(O)(O)CN(CCCN1CCN(CCCN(CP(=O)(O)O)CP(=O)(O)O)CC1)CC(O)CS(=O)(=O)O (stereo not shown) [Example 7] | 92 | 77 | 79 | – | – |
| O=C(O)CN(CCN1CCN(CCN(CP(=O)(O)O)CP(=O)(O)O)CC1)CP(=O)(O)O [Example 5] | 96 | 89 | 83 | – | – |
| O=P(O)(O)CN(CCN1CCN(CCN(CP(=O)(O)O)CP(=O)(O)O)CC1)CP(=O)(O)O [Example 3] | 99 | 91 | 89 | – | approximately three |
| O=P(O)(O)CNCCCN1CCN(CCCN(CP(=O)(O)O)CP(=O)(O)O)CC1 [Example 2] | 99 | 93 | 91 | – | – |
| O=P(O)(O)CNCCN1CCN(CCN(CP(=O)(O)O)CP(=O)(O)O)CC1 [Example 4] | 97 | 87 | 79 | – | – |
| O=P(O)(O)CN(CCCN1CCN(CCCN(CP(=O)(O)O)CP(=O)(O)O)CC1)CP(=O)(O)O [Example 1, completely phosphonomethylated bis(aminopropyl)piperazine] | 99 | 93 | 90 | – | – |
| CC(O)CN(CCN1CCN(CCN(CP(=O)(O)O)CP(=O)(O)O)CC1)CP(=O)(O)O (stereo not shown) [Example 8] | 79 | 77 | 73 | – | – |
